Test results published in US20240174690A1, “ANNULATED 2-AMINO-3-CYANO THIOPHENES AND DERIVATIVES FOR THE TREATMENT OF CANCER” (BOEHRINGER INGELHEIM INTERNATIONAL GMBH, priority 2021, published 2024).

Columns and labels:
LOVO cells = assay: LOVO CTG proliferation assay (120 h) (CRC, G13D); assay type: cell-based; settings: Homo sapiens, CTG 120 h
Procedure: LOVO CTG Proliferation Assay (120 h) (CRC, G13D)
LOVO cells (ATCC CCL-229) are dispensed into 384-well plates, flat and clear bottom (Greiner, PNr. 781091) at a density of 1000 cells per well in 60 μL DMEM (Sigma D6429)+10% Fetal Calf Serum (HyClone, PNr.: SH30084.03) and incubated at 37° C. in a CO2 incubator overnight. The next day, compounds (10 mM stock in DMSO) are added with the ECHO acoustic liquid handler system (Beckman Coulter), including DMSO controls. Plates are incubated for 120 h, and cell viability is measured using CellTiter-Glo luminescent cell viability reagent (Promega product code G7570). Viability (stated as percent of control) is defined as relative luminescence units RLU of each well divided by the RLU of cells in DMSO controls. IC50 values are determined from viability measurements by non-linear regression using a four-parameter model.

[1] = system: KRAS G12D-dependent Ba/F3 cells; assay: Ba/F3 proliferation assay, KRAS G12D; assay type: cell-based; settings: Mus musculus, BaF3, 72 h, AlamarBlue
Procedure: Plasmids containing KRASG12 mutants (i.e. […], G12C, G12V) are obtained from GeneScript. To generate KRASG12-dependent Ba/F3 models, Ba/F3 cells are transduced with retroviruses containing vectors that harbor KRASG12 isoforms. Platinum-E cells (Cell Biolabs) are used for retrovirus packaging. Retrovirus is added to Ba/F3 cells. To ensure infection, 4 μg/mL polybrene is added and cells are spinfected. […] Cells with an infection efficiency of 10% to 20% are further cultivated and puromycin selection with 1 μg/mL is initiated. As a control, parental Ba/F3 cells are used to show selection status. Selection is considered successful when parental Ba/F3 cells cultures died. To evaluate the transforming potential of KRASG12 mutations, the growth medium is no longer supplemented with IL-3. Ba/F3 cells harboring the empty vector are used as a control. Approximately ten days before conducting the experiments, puromycin is left out.
Compounds are added using an Access Labcyte Workstation with a Labcyte Echo 550 or 555 accoustic dispenser. All treatments are performed in technical duplicates. […] AlamarBlue™ (ThermoFisher), a viability stain, is added and fluorescence measured in the PerkinElmer Envision HTS Multilabel Reader. The raw data are imported into and analyzed with the Boehringer Ingelheim proprietary software MegaLab (curve fitting based on the program PRISM, GraphPad Inc.).

[2] = Caco-2 assay (permeability PappAB, PappBA, efflux ratio); assay type: in vitro ADME; settings: human, Caco-2, 10 μM test compound, pH 7.4; for Papp A→B at 90 min, 10 μM: apical to basolateral; for efflux ratio at 90 min, 10 μM: efflux ratio PappBA/PappAB, read-out: Caco ER
Excerpt: The assay provides information on the potential of a compound to pass the cell membrane, on the extent of oral absorption as well as on whether the compound is actively transported by uptake and/or efflux transporters. Permeability measurements across polarized, confluent Caco-2 cell monolayers grown on permeable filter supports (Corning, catalog #3391) are used. […] The receiver and donor compartments contain 0.25% bovine serum albumine (BSA) in assay buffer. Passive diffusion and/or active transport of compounds across the monolayer is measured in both apical to basolateral (a-b) and basolateral to apical (b-a) direction. a-b permeability (PappAB) represents drug absorption from the intestine into the blood and b-a permeability (PappBA) drug secretion from the blood back into the intestine via both passive permeability as well as active transport mechanisms mediated by efflux and uptake transporters that are expressed on the Caco-2 cells. After a pre-incubation of 25-30 min at 37° C., at predefined time points (0, 30, 60 and 90 min), samples were taken from the receiver and donor compartment, respectively. Concentrations of test compounds in samples were measured by HPLC/MS/MS, samples from the donor compartment were diluted 1:50 (v:v) with assay buffer, samples from receiver compartment were measured without dilution.
Apparent permeabilities in a-b (PappAB) and b-a (PappBA) directions are calculated according to the formula:
[formula] • Vrec [mL]: buffer volume in receiver compartment • Cdon [μmol/mL]: concentration of test compound in donor compartment at t=0 • ΔCrec: difference between concentrations of test compound in receiver compartment at start and end of incubation time • Δt: Incubation time • Vrec·ΔCrec/Δt [μmol/min]: Amount of compound transferred to receiver compartment per time • A [cm^2]: filter surface
Caco-2 efflux ratios (ER) are calculated as the ratio of PappBA/PappAB.

SMILES | IC50 (LOVO cells) | IC50 [1] | Papp A→B at 90 min, 10 μM [2] | efflux ratio at 90 min, 10 μM [2]
C[C@H](Oc1cc(N2C[C@H](C)N[C@@H](C)C2)nc(-c2noc3c2CCC[C@@]32CCCc3sc(N)c(C#N)c32)n1)[C@@H]1CCCN1C [II-56] | 661 nM | 20 nM | 7.5 ×10⁻⁶ cm/s | 2.3
C[C@H](Oc1cc(N2CCC[C@H](O)C2)nc(-c2noc3c2CCC[C@@]32CCCc3sc(N)c(C#N)c32)n1)[C@@H]1CCCN1C [II-57] | 500 nM | 40 nM | 0.7 ×10⁻⁶ cm/s | 43.3
CO[C@@H]1C[C@@H]([C@H](C)Oc2cc(-n3ccnc3)nc(-c3noc4c3CCC[C@@]43CCCc4sc(N)c(C#N)c43)n2)N(C)C1 [II-58] | 113 nM | 45 nM | 13 ×10⁻⁶ cm/s | 1.2
C[C@H](Oc1cc(N2CCC[C@@H](O)C2)nc(-c2noc3c2CCC[C@@]32CCCc3sc(N)c(C#N)c32)n1)[C@@H]1CCCN1C [II-59] | 72 nM | 35 nM | 0.9 ×10⁻⁶ cm/s | 37.2
CO[C@@H]1C[C@@H]([C@H](C)Oc2cc(-c3cnn(C)n3)nc(-c3noc4c3CCC[C@@]43CCCc4sc(N)c(C#N)c43)n2)N(C)C1 [II-62] | 2320 nM | 39 nM | 19 ×10⁻⁶ cm/s | 0.3
C[C@H](Oc1cc(N2CC[C@@H](O)C2)nc(-c2noc3c2CCC[C@@]32CCCc3sc(N)c(C#N)c32)n1)[C@@H]1CCCN1C [II-66] | 3680 nM | 71 nM | < 2.9 ×10⁻⁶ cm/s | 
Cc1cn(C)nc1-c1cc(O[C@@H](C)[C@@H]2CCCN2C)nc(-c2noc3c2CCC[C@@]32CCCc3sc(N)c(C#N)c32)n1 [II-68] | 894 nM | 77 nM | 5.8 ×10⁻⁶ cm/s | 1.2
C[C@H](Oc1cc(-n2ccnc2)nc(-c2noc3c2CCC[C@@]32CCCc3sc(N)c(C#N)c32)n1)[C@@H]1CCCN1C [II-69] | 52 nM | 26 nM | 4.1 ×10⁻⁶ cm/s | 5.4
C[C@H](Oc1cc(-n2cncn2)nc(-c2noc3c2CCC[C@@]32CCCc3sc(N)c(C#N)c32)n1)[C@@H]1CCCN1C [II-70] | 77 nM | 47 nM | 17 ×10⁻⁶ cm/s | 1.4
C[C@H](Oc1cc(-c2cc[nH]n2)nc(-c2noc3c2CCC[C@@]32CCCc3sc(N)c(C#N)c32)n1)[C@@H]1CCCN1C [II-71] | 50 nM | 41 nM | 0.5 ×10⁻⁶ cm/s | 63.3
C[C@H](Oc1cc(N2CCN(C)C2=O)nc(-c2noc3c2CCC[C@@]32CCCc3sc(N)c(C#N)c32)n1)[C@@H]1CCCN1C [II-75] | 279 nM | 83 nM | 5 ×10⁻⁶ cm/s | 5
C[C@H](Oc1cc(C2CCOCC2)nc(-c2noc3c2CCC[C@@]32CCCc3sc(N)c(C#N)c32)n1)[C@@H]1CCCN1C [II-76] | 51 nM | 30 nM | 6.5 ×10⁻⁶ cm/s | 3.7
CC(=O)N1CC=C(c2cc(O[C@@H](C)[C@@H]3CCCN3C)nc(-c3noc4c3CCC[C@@]43CCCc4sc(N)c(C#N)c43)n2)CC1 [II-81] | 289 nM | 103 nM | 2 ×10⁻⁶ cm/s | 23
C[C@H](Oc1cc(-c2cncnc2)nc(-c2noc3c2CCC[C@@]32CCCc3sc(N)c(C#N)c32)n1)[C@@H]1CCCN1C [II-82] | 728 nM | 200 nM | 2.5 ×10⁻⁶ cm/s | 9.2
C[C@H](Oc1cc(-c2ccccn2)nc(-c2noc3c2CCC[C@@]32CCCc3sc(N)c(C#N)c32)n1)[C@@H]1CCCN1C [II-85] | 209 nM | 72 nM |  | 1.2
C[C@H](Oc1cc(-c2cnn(C)n2)nc(-c2noc3c2CCC[C@@]32CCCc3sc(N)c(C#N)c32)n1)[C@@H]1CCCN1C [II-86] | 77 nM | 59 nM | 12 ×10⁻⁶ cm/s | 0.8
C[C@H](Oc1cc(-c2cn[nH]c2)nc(-c2noc3c2CCC[C@@]32CCCc3sc(N)c(C#N)c32)n1)[C@@H]1CCCN1C [II-87] | 427 nM | 150 nM | < 1.7 ×10⁻⁶ cm/s | 
C[C@H](Oc1cc([C@H]2CCOC2)nc(-c2noc3c2CCC[C@@]32CCCc3sc(N)c(C#N)c32)n1)[C@@H]1CCCN1C [II-88] | 62 nM | 15 nM | 12 ×10⁻⁶ cm/s | 1.8
C[C@H](Oc1cc(-c2ccn(-c3ccccc3)n2)nc(-c2noc3c2CCC[C@@]32CCCc3sc(N)c(C#N)c32)n1)[C@@H]1CCCN1C [II-89] | 453 nM | 199 nM | < 10 ×10⁻⁶ cm/s | 
CO[C@@H]1C[C@@H]([C@H](C)Oc2cc(-c3ccn(C)n3)nc(-c3noc4c3CCC[C@@]43CCCc4sc(N)c(C#N)c43)n2)N(C)C1 [II-91] | 136 nM | 65 nM | 9 ×10⁻⁶ cm/s | 1.6
C[C@H](Oc1cc([C@@H]2CCOC2)nc(-c2noc3c2CCC[C@@]32CCCc3sc(N)c(C#N)c32)n1)[C@@H]1CCCN1C [II-94] | 51 nM | 11 nM | 13 ×10⁻⁶ cm/s | 2.1
C[C@H](Oc1cc(C2COCCO2)nc(-c2noc3c2CCC[C@@]32CCCc3sc(N)c(C#N)c32)n1)[C@@H]1CCCN1C (some centres unmarked) [II-95] | 149 nM | 81 nM | 12 ×10⁻⁶ cm/s | 2.2
C[C@H](Oc1cc(-c2ccn(C)n2)nc(-c2noc3c2CCC[C@@]32CCCc3sc(N)c(C#N)c32)n1)[C@@H]1CCCN1C [II-96] | 231 nM | 23 nM | 6.5 ×10⁻⁶ cm/s | 7.3
C[C@H](Oc1cc(-c2cccc(CO)c2)nc(-c2noc3c2CCC[C@@]32CCCc3sc(N)c(C#N)c32)n1)[C@@H]1CCCN1C [II-97] | 683 nM | 198 nM | < 9.7 ×10⁻⁶ cm/s | 
C[C@H](Oc1cc(-c2ccn(C3CC3)n2)nc(-c2noc3c2CCC[C@@]32CCCc3sc(N)c(C#N)c32)n1)[C@@H]1CCCN1C [II-98] | 608 nM | 69 nM |  | 1.5
C[C@H](Oc1cc(N2CCC(C#N)C2)nc(-c2noc3c2CCC[C@@]32CCCc3sc(N)c(C#N)c32)n1)[C@@H]1CCCN1C (some centres unmarked) [II-99] | 286 nM | 83 nM | 1.1 ×10⁻⁶ cm/s | 23.6
C[C@H](Oc1cc(-c2ccc(N)nc2)nc(-c2noc3c2CCC[C@@]32CCCc3sc(N)c(C#N)c32)n1)[C@@H]1CCCN1C [II-101] | 1020 nM | 155 nM | 2 ×10⁻⁶ cm/s | 7
C[C@H](Oc1cc(-n2cncc3ccnc2-3)nc(-c2noc3c2CCC[C@@]32CCCc3sc(N)c(C#N)c32)n1)[C@@H]1CCCN1C [II-105] | 150 nM | 37 nM | < 10 ×10⁻⁶ cm/s | 1.1
Cc1cn(-c2cc(O[C@@H](C)[C@@H]3CCCN3C)nc(-c3noc4c3CCC[C@@]43CCCc4sc(N)c(C#N)c43)n2)nn1 [II-106] | 993 nM | 107 nM | 15 ×10⁻⁶ cm/s | 1.1
